Experimental data taken from patent publication US11311624B2, “Inhibitors of MEK/PI3K, JAK/MEK, JAK/PI3K/mTOR and MEK/PI3K/mTOR biological pathways and methods for improving lymphatic uptake, bioavailability, and solubility of therapeutic compounds” (THE REGENTS OF THE UNIVERSITY OF MICHIGAN, priority 2017, dated 2022).
Read-outs that look alike come from different tables or passages of the source.

What was measured:
PI3Kα = PI3Kα (Homo sapiens, UniProt P42336); experiment: In vitro inhibition of PI3Kα; assay type: biochemical
PI3Kδ = PI3Kδ (Homo sapiens, UniProt O00329); experiment: In vitro inhibition of PI3Kδ; assay type: biochemical
PI3Kβ = PI3Kβ (Homo sapiens, UniProt P42338); experiment: In vitro inhibition of PI3Kβ; assay type: biochemical
PI3Kγ = PI3Kγ (Homo sapiens, UniProt P48736); experiment: In vitro inhibition of PI3Kγ; assay type: biochemical
MEK1 = MEK1 (Homo sapiens, UniProt Q02750); experiment: In vitro inhibition of MEK1; assay type: biochemical
[1] = Tissue concentration partitioning (plasma, mesenteric lymph node, fat) after single oral dose in Maisine, LC-MS/MS; assay type: in vivo; conditions: mice, single oral 10 mg in Maisine; for Kp at 4 h: 4 hour time point; for concentration at 4 h: 4 hours post-dosing
Text: Inhibitor compounds were synthesized to discover the underlying parameters needed in the development of chemical modifiers compatible with attachment to drug molecules to provide a drug having the physiochemical characteristics needed for uptake into the lymphatic system. […] This excipient vehicle contains long chain fatty acids and is used for hydrophobic compound solubilization.
Results were quantified using LC-MS/MS for plasma, mesenteric lymph node (LN) and mesenteric fat tissues.

[2] = tested on: TGFα-transgenic mouse model of idiopathic pulmonary fibrosis (IPF); experiment: Dox-inducible TGFα-transgenic mouse model of idiopathic pulmonary fibrosis; assay type: in vivo, mice; conditions: 400 mg/kg PO, 3 week follow up CT scan
Method: Treatment of inflammatory-mediated fibrotic diseases were also evaluated using a doxycycline (Dox)-inducible transforming growth factor-α (TGFα)-transgenic mouse model of idiopathic pulmonary fibrosis (IPF) expressing lung-epithelial specific TGFα following Dox administration. […] Weekly lung micro-CT exams were used for assessment of fibrotic burden. Nintenadib (n=5) (100 mg/kg) was also evaluated for comparison. Lung tissue was examined microscopy in a subset of animals at the conclusion of the study.

[3] = Mesenteric lymph duct cannulation rat model, lymphatic transport (FIG. 8); assay type: in vivo; conditions: 50 mg/kg intraduodenal, pretreatment with cycloheximide
Text: Evaluation of compound mechanism for lymphatic uptake was also undertaken.

Class 1 PI3K isoforms = conditions: read-out: selectivity towards the Class 1 PI3K isoforms; cited from earlier work
A375 xenografts = experiment: Tumor growth inhibition in melanoma xenograft model (FIG. 5C); assay type: in vivo, nude mice; conditions: for tumor growth: 400 mg/kg oral once daily, initial 30 days
Method: (§1) ADME (absorption, distribution, metabolism, and excretion) studies of ST-168 have shown that ST-168 is bioavailable following administration in mice.
(§2) In FIG. 5A, a two-dimensional assessment of ST-162 and ST-168. […] In FIG. 5B, assessment of dead cells in 3D melanoma spheroids post-treatment with ST-162 and ST-168. A375 melanoma spheroids were treated for 72 h with 20 μM each of ST-162 or ST-168 before staining with Calcein AM and ethidium homodimer-1 for fluorescent microscopy (live/dead viability assay, Molecular Probes). Green fluorescence indicates live cells, and red fluorescence indicates dead cells. Images were obtained with an Olympus IX70 fluorescent microscope using the SPOT advance program. In FIG. 5C tumor growth inhibition by ST-162 and ST-168 in a melanoma xenograft model. Tumor implantation consisted of inoculation of 5×10^6 A375 cells suspended in 100 μL of media into the flank of nude mice. Treatment was initiated once tumors reached >100 mm^3. Mice were randomized into two treatment groups and treated once daily with either vehicle (200 μL of OraPlus) or 400 mg/kg each of ST-162 or ST-168 by oral gavage until sacrifice (42 days). Changes in tumor growth of A375 xenografts were assessed by conducting MRI imaging twice per week. Tumor volume changes between ST-162 and ST-168 treatment were determined to be statistically significant (p<0.05) using an unpaired Student's t test at the last time point. Experimental design: n=4-6 tumors/treatment group.

pERK1/2 and pAKT = experiment: Immunoblot of treated A375 melanoma cells (FIG. 5A); assay type: cell-based, human; conditions: 1 h, 20 μM
Method: as §1
as §2, with “Mice were randomized into two treatment groups and treated once daily with either vehicle (200 μL of OraPlus) or 400 mg/kg each of ST-162 or ST-168 by oral gavage until sacrifice (42 days).” left out, “Experimental design: n=4-6 tumors/treatment group.” left out

[4] = Tolerance in colorectal, glioma and melanoma mouse xenograft models; assay type: in vivo; conditions: 400 mg/kg orally, suspended in ORA-Plus, glioma, melanoma xenograft models
Text: as §1

[5] = Plasma and lymphatic tissue levels after single oral dose of ST-168 or PD901, LC-MS/MS (FIG. 3); assay type: in vivo; conditions: mouse; for Kp at 4 h: lymphatic tissue / plasma, single oral dose in ORA-Plus suspension, 4 hours post-administration, read-out: lymphatic/plasma ratio
Method: LC-MS/MS quantification of drug concentrations in mouse tissues over time following a single oral dose is shown. FIG. 3 contains block diagrams for formulations in ORA-Plus liquid particulate suspension: FIG. 3A compound ST-168 levels at 4 hours in plasma and lymphatic tissue versus the MEK inhibitor PD0325901 (henceforth referred to as PD901). FIG. 3B ST-168 time dependence in plasma and lymphatic tissue, and formulated in Maisine, FIG. 3C ST-168 time dependence in plasma and lymphatic tissue following 100 mg/kg dose.
In FIG. 3, LC-MS/MS quantification of drug concentrations in mouse tissues over time are shown following a single oral suspension dose of ST-168 delivered in ORA-Plus®. ORA-Plus is an aqueous-based vehicle (ORA-Plus Product Data Sheet available at Perrigo Company's website) containing a synergistic blend of suspending agents having a high degree of colloidal activity. The suspending agents form a structured, gel-like matrix which suspends particles and allow for little settling. ORA-Plus is buffered to a slightly acidic pH to help reduce degradation of medicinal agents through oxidation. The ORA-Plus contains purified water, microcrystalline cellulose, carboxymethylcellulose sodium, xanthan gum, carrageenan, calcium sulfate, trisodium phosphate, citric acid and sodium phosphate as buffers and dimethicone antifoam emulsion, preserved with methylparaben and potassium sorbate. […] Any compound delivered in ORA-Plus is distributed to the plasma and lymphatic system based upon the physiochemical properties of the drug. Thus, the formulation itself only serves to provide for a suspension of drug particulates and dissolution of drug will be based upon water solubility.
This is an important distinction showing that Compound ST-168 has lymphatic absorptive properties because ORA-Plus is not a long chain fatty acid like Maisine. […] Data presented in FIGS. 3A through 3D reveal that the mEG linker technology for chemical coupling with drugs produces solubility properties consistent with formulation and bioavailability required for drug-like pharmaceutical characteristics and improved lymphatic absorption.

[6] = ADME studies of ST-168 in mice; assay type: in vivo
Text: as §1

[7] = Table 14, read-out: IC50 (nM) PI3Kα
[8] = Table 14, read-out: IC50 (nM) PI3Kδ
[9] = Table 14, read-out: IC50 (nM) PI3Kβ
[10] = Table 14, read-out: IC50 (nM) PI3Kγ
[11] = mouse, mesenteric lymph node / plasma, read-out: lymph/plasma ratio
[12] = Table 10B, inhibitory activity, unit inferred, read-out: PI3Kα

Chain of PI3Kβ (P42338 whole entry, species assumed): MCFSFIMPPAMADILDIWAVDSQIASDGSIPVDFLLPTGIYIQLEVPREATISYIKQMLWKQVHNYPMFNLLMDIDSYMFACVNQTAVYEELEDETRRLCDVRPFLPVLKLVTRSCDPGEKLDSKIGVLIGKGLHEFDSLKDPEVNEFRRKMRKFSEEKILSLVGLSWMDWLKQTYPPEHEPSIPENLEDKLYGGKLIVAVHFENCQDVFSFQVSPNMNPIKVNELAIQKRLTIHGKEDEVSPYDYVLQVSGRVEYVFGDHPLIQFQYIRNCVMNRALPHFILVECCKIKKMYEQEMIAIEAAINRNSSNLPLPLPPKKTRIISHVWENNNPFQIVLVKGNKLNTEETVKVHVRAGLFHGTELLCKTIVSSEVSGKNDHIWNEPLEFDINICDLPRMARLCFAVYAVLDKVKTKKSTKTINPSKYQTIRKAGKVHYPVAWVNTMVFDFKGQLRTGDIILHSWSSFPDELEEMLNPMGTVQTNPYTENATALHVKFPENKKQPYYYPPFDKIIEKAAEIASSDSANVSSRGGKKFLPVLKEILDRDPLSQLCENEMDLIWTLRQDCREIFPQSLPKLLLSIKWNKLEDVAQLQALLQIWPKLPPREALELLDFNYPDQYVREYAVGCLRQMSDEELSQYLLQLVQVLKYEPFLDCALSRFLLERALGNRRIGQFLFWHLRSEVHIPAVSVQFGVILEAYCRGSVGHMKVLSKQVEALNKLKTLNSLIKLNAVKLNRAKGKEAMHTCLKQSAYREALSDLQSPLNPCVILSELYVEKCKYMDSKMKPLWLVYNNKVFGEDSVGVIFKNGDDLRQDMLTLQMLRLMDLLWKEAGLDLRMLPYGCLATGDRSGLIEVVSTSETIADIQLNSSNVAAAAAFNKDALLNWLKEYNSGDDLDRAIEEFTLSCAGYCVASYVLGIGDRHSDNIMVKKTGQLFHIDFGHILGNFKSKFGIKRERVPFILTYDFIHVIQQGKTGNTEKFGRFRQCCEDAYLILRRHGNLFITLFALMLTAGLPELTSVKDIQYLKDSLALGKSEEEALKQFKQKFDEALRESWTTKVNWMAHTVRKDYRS
Chain of PI3Kβ (P27986 whole entry partner, species assumed): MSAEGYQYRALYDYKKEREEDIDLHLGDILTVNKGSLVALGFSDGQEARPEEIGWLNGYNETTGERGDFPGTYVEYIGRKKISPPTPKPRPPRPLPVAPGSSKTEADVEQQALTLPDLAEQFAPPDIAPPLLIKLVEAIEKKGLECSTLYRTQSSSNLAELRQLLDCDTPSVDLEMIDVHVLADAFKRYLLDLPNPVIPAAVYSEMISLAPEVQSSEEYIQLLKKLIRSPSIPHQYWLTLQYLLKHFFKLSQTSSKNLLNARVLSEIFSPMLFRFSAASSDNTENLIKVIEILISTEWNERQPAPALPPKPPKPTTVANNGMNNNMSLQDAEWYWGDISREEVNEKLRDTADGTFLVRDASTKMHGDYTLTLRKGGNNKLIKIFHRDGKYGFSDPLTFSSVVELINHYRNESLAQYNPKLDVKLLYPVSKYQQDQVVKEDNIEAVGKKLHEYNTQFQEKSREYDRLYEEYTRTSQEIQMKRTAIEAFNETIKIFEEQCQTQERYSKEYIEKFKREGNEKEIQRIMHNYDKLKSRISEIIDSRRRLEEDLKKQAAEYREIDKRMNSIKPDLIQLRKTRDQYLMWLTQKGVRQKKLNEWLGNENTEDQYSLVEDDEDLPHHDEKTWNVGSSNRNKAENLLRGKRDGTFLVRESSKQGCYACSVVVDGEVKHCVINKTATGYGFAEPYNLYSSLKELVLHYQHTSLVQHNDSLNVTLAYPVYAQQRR
Chain of PI3Kα (P42336 whole entry, species assumed): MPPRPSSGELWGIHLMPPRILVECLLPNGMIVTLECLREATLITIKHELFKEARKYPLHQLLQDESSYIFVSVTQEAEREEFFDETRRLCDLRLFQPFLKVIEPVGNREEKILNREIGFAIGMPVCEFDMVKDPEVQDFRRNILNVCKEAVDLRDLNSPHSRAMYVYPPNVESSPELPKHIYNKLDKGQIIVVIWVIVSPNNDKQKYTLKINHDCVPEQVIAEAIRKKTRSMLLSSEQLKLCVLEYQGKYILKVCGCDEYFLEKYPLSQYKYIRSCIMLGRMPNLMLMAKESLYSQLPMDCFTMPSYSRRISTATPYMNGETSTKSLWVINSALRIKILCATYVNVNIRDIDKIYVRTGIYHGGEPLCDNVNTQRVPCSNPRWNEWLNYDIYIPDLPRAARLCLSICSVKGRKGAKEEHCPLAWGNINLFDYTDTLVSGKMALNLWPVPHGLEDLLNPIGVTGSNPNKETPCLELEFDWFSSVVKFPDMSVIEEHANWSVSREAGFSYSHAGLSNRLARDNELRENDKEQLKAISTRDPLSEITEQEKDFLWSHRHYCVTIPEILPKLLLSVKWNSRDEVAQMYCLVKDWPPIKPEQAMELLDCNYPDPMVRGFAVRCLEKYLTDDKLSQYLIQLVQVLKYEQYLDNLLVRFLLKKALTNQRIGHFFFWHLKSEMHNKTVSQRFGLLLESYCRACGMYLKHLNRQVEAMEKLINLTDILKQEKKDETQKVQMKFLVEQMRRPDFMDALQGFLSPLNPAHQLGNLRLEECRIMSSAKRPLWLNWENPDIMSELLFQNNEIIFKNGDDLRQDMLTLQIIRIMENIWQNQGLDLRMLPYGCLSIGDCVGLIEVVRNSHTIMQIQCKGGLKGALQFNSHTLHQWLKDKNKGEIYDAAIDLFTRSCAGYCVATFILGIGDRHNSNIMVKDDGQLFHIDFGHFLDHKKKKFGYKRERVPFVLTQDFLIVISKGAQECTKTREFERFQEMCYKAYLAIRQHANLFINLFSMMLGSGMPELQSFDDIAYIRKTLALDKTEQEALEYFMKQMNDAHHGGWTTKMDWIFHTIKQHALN
Chain of PI3Kα (P27986 whole entry partner, species assumed): as the sequence (P27986 whole entry partner, species assumed) above
Chain of PI3Kδ (O00329 whole entry, species assumed): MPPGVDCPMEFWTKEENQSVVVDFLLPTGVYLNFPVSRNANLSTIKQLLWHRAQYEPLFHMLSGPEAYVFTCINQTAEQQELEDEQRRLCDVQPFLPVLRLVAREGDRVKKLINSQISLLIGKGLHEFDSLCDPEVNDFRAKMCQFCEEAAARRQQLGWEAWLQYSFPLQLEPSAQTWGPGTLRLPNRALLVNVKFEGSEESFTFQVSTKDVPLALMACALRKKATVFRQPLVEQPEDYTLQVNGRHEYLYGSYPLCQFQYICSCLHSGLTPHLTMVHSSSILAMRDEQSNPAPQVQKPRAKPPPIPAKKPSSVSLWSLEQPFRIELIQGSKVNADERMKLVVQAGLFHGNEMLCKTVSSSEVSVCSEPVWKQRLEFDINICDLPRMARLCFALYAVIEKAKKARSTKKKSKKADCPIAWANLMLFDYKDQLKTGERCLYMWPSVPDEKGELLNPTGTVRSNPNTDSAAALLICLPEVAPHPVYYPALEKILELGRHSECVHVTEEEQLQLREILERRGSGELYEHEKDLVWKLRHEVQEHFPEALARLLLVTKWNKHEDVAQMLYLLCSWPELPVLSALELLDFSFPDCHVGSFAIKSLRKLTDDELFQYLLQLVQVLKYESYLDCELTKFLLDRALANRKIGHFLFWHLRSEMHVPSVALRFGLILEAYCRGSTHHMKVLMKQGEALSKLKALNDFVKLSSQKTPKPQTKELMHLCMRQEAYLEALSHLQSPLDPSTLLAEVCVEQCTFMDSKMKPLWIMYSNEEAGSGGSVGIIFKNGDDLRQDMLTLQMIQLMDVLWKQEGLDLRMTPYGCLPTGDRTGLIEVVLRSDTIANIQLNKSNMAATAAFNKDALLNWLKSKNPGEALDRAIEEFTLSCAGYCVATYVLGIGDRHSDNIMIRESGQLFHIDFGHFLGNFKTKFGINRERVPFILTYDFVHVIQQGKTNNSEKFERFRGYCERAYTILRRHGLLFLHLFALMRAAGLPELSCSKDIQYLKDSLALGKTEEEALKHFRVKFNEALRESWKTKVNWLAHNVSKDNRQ
Chain of PI3Kδ (P27986 whole entry partner, species assumed): as the sequence (P27986 whole entry partner, species assumed) above
Chain of MEK1 (Q02750 whole entry, species assumed): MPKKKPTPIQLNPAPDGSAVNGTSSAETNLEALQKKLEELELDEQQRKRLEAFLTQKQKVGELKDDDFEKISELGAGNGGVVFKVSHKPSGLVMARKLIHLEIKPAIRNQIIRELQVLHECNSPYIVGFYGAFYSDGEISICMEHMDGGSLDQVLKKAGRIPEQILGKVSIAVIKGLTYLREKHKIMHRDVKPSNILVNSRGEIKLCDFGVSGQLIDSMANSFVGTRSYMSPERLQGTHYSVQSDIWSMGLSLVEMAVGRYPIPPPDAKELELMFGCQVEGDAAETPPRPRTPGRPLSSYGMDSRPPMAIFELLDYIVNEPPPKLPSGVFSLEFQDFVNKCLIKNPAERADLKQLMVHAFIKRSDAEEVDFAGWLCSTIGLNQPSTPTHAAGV

| SMILES | IC50 (PI3Kα; [7]) [nM] | IC50 (PI3Kδ; [8]) [nM] | IC50 (PI3Kβ; [9]) [nM] | IC50 (PI3Kγ; [10]) [nM] | other results |
| --- | --- | --- | --- | --- | --- |
| CC(=O)N(C)CCNc1nc(N2CCOCC2)nc(-n2c(C(F)F)nc3ccccc32)n1 [ST-5-31] | 10.3 ± 1 | 11.7 ± 2.2 | 404 ± 63 | 55.2 ± 11.5 | – |
| O=C(NOCCOCCOCCOCCNc1nc(N2CCOCC2)nc(-n2c(C(F)F)nc3ccccc32)n1)c1ccc(F)c(F)c1Nc1ccc(F)cc1F [ST-6-02] | 130 ± 13 | 236 ± 29 | 1540 ± 188 | 2740 ± 485 | IC50 (MEK1): 124 ± 11 nM |
| OCCN(CCO)c1nc(N2CCOCC2)nc(-n2c(C(F)F)nc3ccccc32)n1 [ST-5-32] | 3.74 ± 1 | 9.9 ± 0.4 | 74 ± 5.7 | 14.6 ± 1.4 | – |
| O=C(NCCCCCCCCCCCNC(=O)c1ccccc1)c1ccccc1 [Compound 2] | – | – | – | – | concentrations in tissues tested, compared to Compound 1 ([1]; plasma, mesenteric lymph node, fat): much lower concentrations in all tissues tested; Kp ([1]; mouse, mesenteric lymph node / plasma, between time points 0.5, 2, and 4 hours, read-out: lymph/plasma ratios): 3 to 5 |
| O=C(NOCCOCCOCCOCCC(=O)N1CCN(c2cnc3ccc(-c4cnc(Cl)c(NS(=O)(=O)c5ccc(F)cc5)c4)cc3n2)CC1)c1ccc(F)c(F)c1Nc1ccc(I)cc1F [ST-182] | – | – | – | – | reversal of lung fibroproliferative disease and pleural thickness (CT) [2]: strong activity for reversal; transport into the lymphatics after cycloheximide pretreatment [3]: significantly reduced |
| O=C(NCCCCCCCCCCCNC(=O)c1cccc2ccccc12)c1cccc2ccccc12 [Compound 4] | – | – | – | – | Kp at 4 h [1, 11]: ~6 |
| O=C(O)CCOCCOCCOCCONC(=O)c1ccc(F)c(F)c1Nc1ccc(I)cc1F [MV6-8] | – | – | – | – | IC50 (MEK1): 72.3 ± 1.9 nM |
| COc1ccc(-c2ccc3c(N4CCOC[C@H]4C)nc(N4CCOC[C@H]4C)nc3n2)cc1CO [AZD 8055] | – | – | – | – | IC50 (Class 1 PI3K isoforms): > 1000 nM |
| O=C(NOCCOCCOCCOCCN1CCN(c2nc(N3CCOCC3)nc(-n3c(C(F)F)nc4ccccc43)n2)CC1)c1ccc(F)c(F)c1Nc1ccc(I)cc1F [ST-162] | – | – | – | – | tumor growth (A375 xenografts): tumor stasis; IC50 (PI3Kα; [12]): 191 ± 64 nM; down regulation of pERK1/2 and pAKT in cells (pERK1/2 and pAKT): down regulate; IC50 (PI3Kδ; Table 10B, inhibitory activity, unit inferred, read-out: PI3Kδ): 942 ± 120 nM |
| O=C(NOCCOCCOCCOCCC(=O)N1CCN(c2nc(N3CCOCC3)nc(-n3c(C(F)F)nc4ccccc43)n2)CC1)c1ccc(F)c(F)c1Nc1ccc(I)cc1F [ST-168] | – | – | – | – | in vivo activity for suppression of MEK1/PI3K kinase activities in solid tumors, compared to ST-162 (A375 xenografts; 400 mg/kg oral gavage once daily, A375 xenografts): superior in vivo activity; tumor growth (A375 xenografts): tumor stasis; tolerance / observed toxicities [4]: no observed toxicities; reversal of lung fibroproliferative disease and pleural thickness (CT) [2]: strong activity for reversal; IC50 (PI3Kα; [12]): 69.2 ± 2.2 nM; down regulation of pERK1/2 and pAKT in cells (pERK1/2 and pAKT): down regulate; IC50 (PI3Kβ; Table 10B, inhibitory activity, unit inferred, read-out: PI3Kβ): 1480 ± 377 nM; Kp at 4 h [5]: ~120; partitioning between lymphatic/plasma over time ([5]; single oral dose of 400 mg/kg in ORA-Plus): maintained over a 24 hour time period; lymphatic uptake (tissue concentration levels) ([5]; single oral doses of 100 mg/kg and 400 mg/kg in Maisine, 2, 4, and 24 hour): extraordinarily high lymphatic uptake; bioavailability following administration [6]: bioavailable; IC50 (PI3Kγ; Table 10B, inhibitory activity, unit inferred, read-out: PI3Kγ): 2290 ± 241 nM |
| COCCN(CCO)c1nc(N2CCOCC2)nc(-n2c(C(F)F)nc3ccccc32)n1 [ST-6-01] | 5.1 ± 1.1 | 8.9 ± 0.5 | 136 ± 6.4 | 30.7 ± 0.9 | – |
| NOCCOCCOCCOCCN(CCO)c1nc(N2CCOCC2)nc(-n2c(C(F)F)nc3ccccc32)n1 [ST-5-46] | 10.9 ± 0.7 | 8.6 ± 1.2 | 1080 ± 143 | 137 ± 21 | – |
| O=C(NOC[C@H](O)CO)c1ccc(F)c(F)c1Nc1ccc(I)cc1F [Compound 901, reference compound] | – | – | – | – | Kp at 4 h [5]: ~1.2 |
| CN(C)CCN(CCO)c1nc(N2CCOCC2)nc(-n2c(C(F)F)nc3ccccc32)n1 [ST-5-44] | 148 ± 22 | 46.7 ± 3.3 | 627 ± 174 | 869 ± 11 | – |
| O=C(NCCOCCOCCOCCNC(=O)c1ccccc1)c1ccccc1 [Compound 1] | – | – | – | – | Kp at 0.5 h ([1]; mouse, mesenteric lymph node / plasma, 0.5 hours, read-out: lymph/plasma ratio): ~0.6; Kp at 4 h [1, 11]: ~1; concentration at 4 h ([1]; mouse, mesenteric lymph node, read-out: lymphatic concentration): ~85 ng/mL; concentration at 4 h ([1]; mouse, plasma, read-out: plasma concentration): ~95 ng/mL |
| O=C(NOCCOCCOCCOCCN(CCO)c1nc(N2CCOCC2)nc(-n2c(C(F)F)nc3ccccc32)n1)c1ccc(F)c(F)c1Nc1ccc(I)cc1F [ST-5-47] | 107 ± 21 | 137 ± 7 | 3880 ± 725 | 2570 ± 364 | IC50 (MEK1): 352 ± 2 nM |
| NOCCOCCOCCOCCNc1nc(N2CCOCC2)nc(-n2c(C(F)F)nc3ccccc32)n1 [ST-5-50] | 89.3 ± 9.5 | 12.6 ± 1 | 1870 ± 245 | 502 ± 20 | – |
| O=C(NCCOCCOCCOCCNC(=O)c1cccc2ccccc12)c1cccc2ccccc12 [Compound 3] | – | – | – | – | Kp at 4 h [1, 11]: ~5 |
